Key:
Format in all cases: in vivo
[1] = tested on: ryegrass, Italian (italian ryegrass, Lolium multiflorum); assay: Test A postemergence application, visual injury rating 0-100
Outline: (§1)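 Greenhouse test: loam/sand pots received a surfactant-containing formulation, as a preemergence directed soil spray or a postemergence spray on young plants. Injury was judged visually at day 10 relative to untreated controls.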

[2] = tested on: barnyardgrass (Echinochloa crus-galli); assay: as above
Outline: as §1

[3] = tested on: horseweed (Erigeron canadensis); assay: as above
Outline: as §1

[4] = tested on: oat, wild (wild oat, Avena fatua); assay: as above
Outline: as §1

[5] = tested on: wheat (Triticum aestivum); assay: as above
Outline: as §1

kochia (Bassia scoparia) [6] = assay: as above
Outline: as §1

corn (Zea mays) [7] = assay: as above
Outline: as §1

[8] = tested on: galium (catchweed bedstraw, Galium aparine); assay: as above
Outline: as §1

[9] = tested on: green foxtail (Setaria viridis); assay: as above
Outline: as §1

[10] = tested on: ragweed (common ragweed, Ambrosia artemisiifolia); assay: as above
Outline: as §1

soybean (Glycine max) [11] = assay: as above
Outline: as §1

[12] = tested on: palmer (palmer amaranth, palmer pigweed, Amaranthus palmeri); assay: as above
Outline: as §1

[13] = tested on: blackgrass (Alopecurus myosuroides); assay: as above
Outline: as §1

[14] = tested on: ducksalad (Heteranthera limosa); assay: Test B flooded paddy test, visual plant response rating 0-100; conditions: 250 g ai/ha, Flood, applied to paddy water, evaluated after 13 days
Outline: (§2)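 In this flooded assay, 2-leaf seedlings received compound through the water layer, kept at 3 cm over the soil. Plants were held 13 days in a greenhouse and then visually compared with control pots.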

[15] = tested on: barnyardgrass (Echinochloa crusgalli); assay: as above; conditions: 250 g ai/ha, Flood, applied to paddy water, evaluated after 13 days
Outline: as §2

[16] = tested on: sedge, umbrella (small-flower umbrella sedge, Cyperus difformis); assay: as above; conditions: 250 g ai/ha, Flood, applied to paddy water, evaluated after 13 days
Outline: as §2

rice (Oryza sativa) = assay: as above; conditions: 250 g ai/ha, Flood, applied to paddy water, evaluated after 13 days
Outline: as §2

[17] = tested on: ryegrass, Italian (italian ryegrass, Lolium multiflorum); assay: Test A preemergence soil spray, visual injury rating 0-100; conditions: 10 days
Outline: as §1

[18] = tested on: barnyardgrass (Echinochloa crus-galli); assay: as above; conditions: 10 days
Outline: as §1

[19] = tested on: oat, wild (wild oat, Avena fatua); assay: as above; conditions: 10 days
Outline: as §1

[20] = tested on: wheat (Triticum aestivum); assay: as above; conditions: 10 days
Outline: as §1

kochia (Bassia scoparia) [21] = assay: as above; conditions: 16 g ai/ha, 0 to 100 scale, 10 days
Outline: as §1

corn (Zea mays) [22] = assay: as above; conditions: 10 days
Outline: as §1

[23] = tested on: green foxtail (Setaria viridis); assay: as above; conditions: 10 days
Outline: as §1

[24] = tested on: ragweed (common ragweed, Ambrosia artemisiifolia); assay: as above; conditions: 10 days
Outline: as §1

soybean (Glycine max) [25] = assay: as above; conditions: 10 days
Outline: as §1

[26] = tested on: palmer (palmer amaranth, palmer pigweed, Amaranthus palmeri); assay: as above; conditions: 10 days
Outline: as §1

[27] = tested on: blackgrass (Alopecurus myosuroides); assay: as above; conditions: 10 days
Outline: as §1

[28] = 62 g ai/ha, postemergence, 10 days, 0 = no effect, 100 = complete control
[29] = Postemergence, 16 g ai/ha, greenhouse 10 days, 0 no effect, 100 complete control
[30] = 62 g ai/ha, 0 = no effect, 100 = complete control

## Cc1cc(C)cc(N2CC(C)(C(=O)NC3C=CC(C(=O)O)C3)OC2=O)c1 (stereo not drawn) [Compound 126]
[1]; [28]
  Ryegrass, Italian plant response rating (0-100): 60
[1]; [29]
  Ryegrass, Italian plant response rating (0 to 100 scale): 30
[2]; [28]
  Barnyardgrass plant response rating (0-100): 90
[2]; [29]
  Barnyardgrass plant response rating (0 to 100 scale): 50
[3]; [28]
  Horseweed plant response rating (0-100): 20
[3]; [29]
  Horseweed plant response rating (0 to 100 scale): 0
[4]; [28]
  Oat, Wild plant response rating (0-100): 90
[4]; [29]
  Oat, Wild plant response rating (0 to 100 scale): 30
[5]; [28]
  Wheat plant response rating (0-100): 90
[5]; [29]
  Wheat plant response rating (0 to 100 scale): 30
Kochia (Bassia scoparia) [6]; [28]
  Kochia plant response rating (0-100): 30
Kochia (Bassia scoparia) [6]; [29]
  Kochia plant response rating (0 to 100 scale): 0
Corn (Zea mays) [7]; [28]
  Corn plant response rating (0-100): 100
Corn (Zea mays) [7]; [29]
  Corn plant response rating (0 to 100 scale): 20
[8]; [28]
  Galium plant response rating (0-100): 80
[8]; [29]
  Galium plant response rating (0 to 100 scale): 70
[9]; [28]
  Foxtail, Green plant response rating (0-100): 30
[9]; [29]
  Foxtail, Green plant response rating (0 to 100 scale): 0
[10]; [28]
  Ragweed plant response rating (0-100): 30
[10]; [29]
  Ragweed plant response rating (0 to 100 scale): 0
Soybean (Glycine max) [11]; [28]
  Soybean plant response rating (0-100): 60
Soybean (Glycine max) [11]; [29]
  Soybean plant response rating (0 to 100 scale): 0
[12]; [28]
  Pigweed, Palmer plant response rating (0-100): 30
[12]; [29]
  Pigweed, Palmer plant response rating (0 to 100 scale): 10
[13]; [28]
  Blackgrass plant response rating (0-100): 90
[13]; [29]
  Blackgrass plant response rating (0 to 100 scale): 60
[14]
  Plant response rating, Ducksalad (0 to 100 scale, 0 is no effect and 100 is complete control): 55
[15]
  Plant response rating, Barnyardgrass (0 to 100 scale, 0 is no effect and 100 is complete control): 25
[16]
  Plant response rating, Sedge, Umbrella (0 to 100 scale, 0 is no effect and 100 is complete control): 35
Rice (Oryza sativa)
  Plant response rating, Rice (0 to 100 scale, 0 is no effect and 100 is complete control): 5
[17]; 16 g ai/ha, 0 to 100 scale
  Ryegrass, Italian plant response rating: 0
[17]; [30]
  Ryegrass, Italian plant response rating (0-100): 40
[18]; 16 g ai/ha, 0 to 100 scale
  Barnyardgrass plant response rating: 10
[18]; [30]
  Barnyardgrass plant response rating (0-100): 90
[19]; 16 g ai/ha, 0 to 100 scale
  Oat, Wild plant response rating: 0
[19]; [30]
  Oat, Wild plant response rating (0-100): 30
[20]; 16 g ai/ha, 0 to 100 scale
  Wheat plant response rating: 20
[20]; [30]
  Wheat plant response rating (0-100): 90
Kochia (Bassia scoparia) [21]
  Kochia plant response rating: 0
Corn (Zea mays) [22]; 16 g ai/ha, 0 to 100 scale
  Corn plant response rating: 0
Corn (Zea mays) [22]; [30]
  Corn plant response rating (0-100): 40
[23]; 16 g ai/ha, 0 to 100 scale
  Foxtail, Green plant response rating: 0
[23]; [30]
  Foxtail, Green plant response rating (0-100): 10
[24]; 16 g ai/ha, 0 to 100 scale
  Ragweed plant response rating: 0
[24]; [30]
  Ragweed plant response rating (0-100): 0
Soybean (Glycine max) [25]; 16 g ai/ha, 0 to 100 scale
  Soybean plant response rating: 0
Soybean (Glycine max) [25]; [30]
  Soybean plant response rating (0-100): 0
[26]; 16 g ai/ha, 0 to 100 scale
  Pigweed, Palmer plant response rating: 20
[26]; [30]
  Pigweed, Palmer plant response rating (0-100): 50
[27]; 16 g ai/ha, 0 to 100 scale
  Blackgrass plant response rating: 0
[27]; [30]
  Blackgrass plant response rating (0-100): 40

— patent US20260285850A1, “SUBSTITUTED OXAZOLIDINONES AND IMIDAZOLINONES AS HERBICIDES” (FMC CORPORATION, priority 2023, published 2026)
